This passage reports IC50 results from patent US20100105655A1, “NOVEL COMPOUNDS 515” (ASTRAZENECA AB, priority 2008, published 2010).

The experiment addresses T1, IGFR kinase (Homo sapiens, UniProt P08069).
T1 construct: purchased Millipore
Kind of experiment: Enzyme assay (c), IGFR kinase, Caliper LabChip. In kind it is biochemical. The settings on record: 30 nM IGFR kinase, 6 uM ATP, 3 uM peptide mix; read-out: IGFR IC50.

Each structure is given as a SMILES string.

T1 sequence (P08069 31-1367): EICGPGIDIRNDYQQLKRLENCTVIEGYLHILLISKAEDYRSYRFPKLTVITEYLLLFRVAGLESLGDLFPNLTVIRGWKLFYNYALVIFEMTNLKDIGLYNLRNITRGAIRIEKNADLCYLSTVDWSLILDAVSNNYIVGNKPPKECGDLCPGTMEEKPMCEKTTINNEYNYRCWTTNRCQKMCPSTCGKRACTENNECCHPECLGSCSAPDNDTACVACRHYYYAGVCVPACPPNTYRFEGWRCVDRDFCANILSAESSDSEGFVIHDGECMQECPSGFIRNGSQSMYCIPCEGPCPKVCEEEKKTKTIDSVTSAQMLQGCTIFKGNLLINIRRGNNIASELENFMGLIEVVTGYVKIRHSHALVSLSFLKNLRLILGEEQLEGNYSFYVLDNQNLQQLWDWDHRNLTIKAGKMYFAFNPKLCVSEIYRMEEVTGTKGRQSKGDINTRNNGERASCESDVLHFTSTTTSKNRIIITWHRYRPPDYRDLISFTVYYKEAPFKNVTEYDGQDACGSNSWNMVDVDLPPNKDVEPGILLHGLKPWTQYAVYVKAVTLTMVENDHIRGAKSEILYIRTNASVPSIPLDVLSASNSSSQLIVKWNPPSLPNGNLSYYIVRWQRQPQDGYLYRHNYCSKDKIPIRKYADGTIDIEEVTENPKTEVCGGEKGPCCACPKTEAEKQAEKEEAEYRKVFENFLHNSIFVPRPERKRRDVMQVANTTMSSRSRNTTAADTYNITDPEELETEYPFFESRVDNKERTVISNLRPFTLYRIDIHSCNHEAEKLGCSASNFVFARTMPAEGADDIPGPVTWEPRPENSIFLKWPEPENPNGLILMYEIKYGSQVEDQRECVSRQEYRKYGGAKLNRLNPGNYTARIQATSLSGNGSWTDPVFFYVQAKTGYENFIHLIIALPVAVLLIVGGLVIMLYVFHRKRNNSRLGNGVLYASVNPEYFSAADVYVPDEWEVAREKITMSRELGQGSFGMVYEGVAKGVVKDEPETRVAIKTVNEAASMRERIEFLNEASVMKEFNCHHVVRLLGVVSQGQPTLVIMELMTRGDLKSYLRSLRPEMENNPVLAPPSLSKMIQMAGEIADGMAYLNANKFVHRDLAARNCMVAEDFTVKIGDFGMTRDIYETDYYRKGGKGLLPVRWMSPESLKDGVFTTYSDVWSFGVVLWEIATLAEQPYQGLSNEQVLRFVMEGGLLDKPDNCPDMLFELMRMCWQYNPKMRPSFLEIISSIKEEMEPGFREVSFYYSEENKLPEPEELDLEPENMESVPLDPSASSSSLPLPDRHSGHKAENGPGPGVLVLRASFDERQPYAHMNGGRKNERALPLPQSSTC

Take `COc1ccc(OC[C@@H]2CCCN2)cc1Nc1ncc(Cl)c(-c2cnc3ccccn23)n1` [Example 6.3, 5-chloro-4-imidazo[1,2-a]pyridin-3-yl-N-[2-methoxy-5-[[(2S)-pyrrolidin-2-yl]methoxy]phenyl]pyrimidin-2-amine]: the IC50 – broadly, the point on the concentration scale where inhibition reaches its midpoint – came to 0.018 µM.

For the molecule `COc1cc(C=O)ccc1Nc1ncc(Cl)c(-c2cnc3ccccn23)n1` [Example 20A, 4-(5-chloro-4-(imidazo[1,2-a]pyridin-3-yl)pyrimidin-2-ylamino)-3-methoxybenzaldehyde], the half-maximal inhibitory concentration (IC50) worked out at 0.068 µM.

For the molecule `COc1ccc(N2CCN(C(=O)CN(C)C)CC2)cc1Nc1ncc(C)c(-c2cnn3ccccc23)n1` [Example 236, 2-(dimethylamino)-1-[4-[4-methoxy-3-[(5-methyl-4-pyrazolo[1,5-a]pyridin-3-yl-pyrimidin-2-yl)amino]phenyl]piperazin-1-yl]ethanone], the IC50 was determined as 0.049 µM.

In the case of `COc1cc(N2CCN(C(=O)[C@@H](N)C(C)C)CC2)ccc1Nc1ncc(Cl)c(-c2cnc3ccccn23)n1` [Example 24.6, (2S)-2-amino-1-[4-[4-[(5-chloro-4-imidazo[1,2-a]pyridin-3-yl-pyrimidin-2-yl)amino]-3-methoxy-phenyl]piperazin-1-yl]-3-methyl-butan-1-one], the IC50 is 0.006 µM.

Consider `COc1cc(N2CCN(C(=O)N(C)CCO)CC2)ccc1Nc1ncc(Cl)c(-c2cnc3ccccn23)n1` [Example 47.1, 4-[4-[(5-chloro-4-imidazo[1,2-a]pyridin-3-yl-pyrimidin-2-yl)amino]-3-methoxy-phenyl]-N-(2-hydroxyethyl)-N-methyl-piperazine-1-carboxamide], for which the IC50 was determined as 0.009 µM.

In the case of `COc1cc(C2CCNCC2)ccc1Nc1ncc(F)c(-c2cnn3ccccc23)n1` [Example 173, 5-fluoro-N-[2-methoxy-4-(4-piperidyl)phenyl]-4-pyrazolo[1,5-a]pyridin-3-yl-pyrimidin-2-amine], the half-inhibitory concentration (IC50) was 0.01 µM.

Take `COc1cc(C2CCN(C(C)=O)CC2)ccc1Nc1ncc(Cl)c(-c2cnc3c(F)cccn23)n1` [Example 177, 1-[4-[4-[[5-chloro-4-(8-fluoroimidazo[1,2-a]pyridin-3-yl)pyrimidin-2-yl]amino]-3-methoxy-phenyl]-1-piperidyl]ethanone]: the IC50 amounted to 0.005 µM.

`COc1cc(O[C@@H]2CCN(S(C)(=O)=O)C2)ccc1Nc1ncc(Cl)c(-c2cnc3ccccn23)n1` [Example 11, 5-chloro-4-imidazo[1,2-a]pyridin-3-yl-N-[2-methoxy-4-[(3R)-1-methylsulfonylpyrrolidin-3-yl]oxy-phenyl]pyrimidin-2-amine]: the 50% inhibitory concentration (IC50) amounted to 0.018 µM.

`COc1cc(N2CCN(C(=O)C(C)(C)O)CC2)ccc1Nc1ncc(Cl)c(-c2cnc3ccccn23)n1` [Example 25.6, 1-[4-[4-[(5-chloro-4-imidazo[1,2-a]pyridin-3-yl-pyrimidin-2-yl)amino]-3-methoxy-phenyl]piperazin-1-yl]-2-hydroxy-2-methyl-propan-1-one]: the IC50 is 0.011 µM.

Turning to `COc1ccc(C2CCNCC2)cc1Nc1ncc(F)c(-c2cnc3ccccn23)n1` [Example 112, 5-fluoro-4-imidazo[1,2-a]pyridin-3-yl-N-[2-methoxy-5-(4-piperidyl)phenyl]pyrimidin-2-amine], the IC50 came to 0.042 µM.

As to `COc1cc(O[C@H]2CCN(C(=O)C(C)O)C2)ccc1Nc1ncc(Cl)c(-c2cnc3ccccn23)n1` (mixture of isomers) [Example 15, 1-[(3S)-3-[4-[(5-chloro-4-imidazo[1,2-a]pyridin-3-yl-pyrimidin-2-yl)amino]-3-methoxy-phenoxy]pyrrolidin-1-yl]-2-hydroxy-propan-1-one], the IC50 came out at 0.012 µM.

For `COc1cc(N2CCN(C[C@H](O)CO)CC2)ccc1Nc1ncc(C)c(-c2cnc3ccccn23)n1` [Example 268, (2S)-3-[4-[4-[(4-imidazo[1,2-a]pyridin-3-yl-5-methyl-pyrimidin-2-yl)amino]-3-methoxy-phenyl]piperazin-1-yl]propane-1,2-diol], the IC50 was determined as 0.023 µM.
